Measured values as given in publication PMC11466185, “Mechanisms and efficacy of small molecule latency-promoting agents to inhibit HIV reactivation ex vivo” (JCI Insight, 2024).

Test system: HIV transcripts (TAR, LLTR, Pol, PolyA, TatRev)
Assay: Baseline HIV transcription without activation, PBMCs from ART-suppressed PWH, 24 hours
Type: cell-based
Settings: no activation; for LLTR HIV transcripts (DMSO = 100) / Pol HIV transcripts (DMSO = 100) / PolyA HIV transcripts (DMSO = 100) / Tat-Rev HIV transcripts (DMSO = 100) / PolyA/LLTR ratio (DMSO = 1) / TatRev/PolyA ratio (DMSO = 1) / TAR HIV transcripts (DMSO = 100) / LLTR/TAR ratio (DMSO = 1): ruxolitinib 4μM, dinaciclib 8nM, AZD4573 8nM, KRIBB11 2.5μM; for LLTR HIV transcripts (DMSO = 100) / Pol HIV transcripts (DMSO = 100) / PolyA HIV transcripts (DMSO = 100) / Tat-Rev HIV transcripts (DMSO = 100) / TAR HIV transcripts (DMSO = 100): pladienolide B 10nM; for PolyA/LLTR ratio (DMSO = 1) / TatRev/PolyA ratio (DMSO = 1) / LLTR/TAR ratio (DMSO = 1): pladienolide B
Description: For a selection of the compounds, we evaluated the ability to reduce baseline HIV transcription without activation. PBMCs were cultured in the presence of individual drugs in DMSO or DMSO alone as a control and harvested after 24 hours. For each drug, we tested PBMCs from at least 3 PWH, as indicated in Supplemental Figure 5B. […] Likewise, pladienolide B appeared to reduce the level of multiply spliced transcripts (33%, Supplemental Figure 5, A and B).
PBMCs were isolated from fresh venous blood from 16 ART-suppressed HIV-infected study participants using Ficoll density gradient centrifugation. The cells were seeded at 6 × 10^6 cells/well and cultured with antiretrovirals (nevirapine and indinavir) to prevent new infection. On the next day, PBMCs were activated with anti-CD3/CD28–coated beads (Invitrogen) in the presence of 20 U/mL IL-2 and individual drugs in DMSO or DMSO alone as a control. Since we were limited in the PBMC yield per study participant, different study participants were used for different experiments (such as the initial screen, dose response, different time points, and studies in activated vs. unstimulated cells). In addition, the yields of PBMCs were sometimes insufficient to test all drugs for a given question or experiment.
Total cellular DNA and RNA were extracted in parallel using Trireagent (Molecular Research Center) according to the manufacturer’s instructions, except for study participants 2147 and 2461 (Figure 4), for whom DNA and RNA were extracted using the QIAGEN AllPrep DNA/RNA/miRNA Universal Kit with on-column DNase I treatment of the RNA and the manufacturer’s modification to enhance recovery of short transcripts. RNA and DNA concentrations were measured using UV spectrophotometry (NanoDrop One, Thermo Fisher Scientific). Total initiated HIV (TAR) transcripts were quantified by a 3-step polyadenylation RT-ddPCR as described previously ([8], [84]). HIV 5′ elongated (LLTR), midtranscribed (Pol), completed (PolyA), and multiply spliced (TatRev) transcripts were quantified by a 2-step RT-ddPCR as previously described ([8]). The levels of each HIV transcript were normalized to 1 μg of total cellular RNA and expressed as a percentage of the (activated) DMSO control. To quantify virion-associated RNA in supernatant, RNA was extracted from 400 μL supernatant using Trireagent-LS (Molecular Research Center) according to the manufacturer’s instructions. Levels of U3-polyadenylated HIV RNA were measured in the supernatant by RT-ddPCR, normalized to copies/mL, and expressed as a percentage of the activated DMSO. For measuring the HIV infection frequency at day 6, the HIV DNA U3-U5 LTR region was quantified by using ddPCR as described previously ([8]). HIV DNA copies were normalized to cell numbers according to the mass of DNA input per well (calculated from the DNA concentration and input volume) ([85]).
Figure S5. CDK-inhibitors appear to decrease baseline HIV splicing even in the absence of T cell activation. Each drug was tested in PBMCs from at least three ART-suppressed study participants and PBMCs were aliquoted into wells at 6x10^6 cells/well. The cells were cultured with antiretrovirals but without activation in the presence of individual drugs in (1 picture or pasted object on this page, not shown here)
DMSO or DMSO alone as control. After 24h, total RNA was extracted and the progression through different stages of HIV transcription was quantified by measuring the levels of initiated (TAR), 5’ elongated (LLTR), mid-transcribed/unspliced (Pol), completed (PolyA) and multiply spliced (TatRev) HIV transcripts. A-B) The levels of all HIV transcripts were quantified, normalized to 1 µg of total cellular RNA, and expressed as a percent of the DMSO control (% of DMSO). A) Medians are shown, as well as the values of the individual study participants in different colors. B) The medians from panel A) are presented. The effect of each drug on the different transcripts was studied in three to six study participants, as […]

Compound	LLTR HIV transcripts (DMSO = 100) (participant 156)	Pol HIV transcripts (DMSO = 100) (participant 156)	PolyA HIV transcripts (DMSO = 100) (participant 156)	Tat-Rev HIV transcripts (DMSO = 100) (participant 156)	LLTR HIV transcripts (DMSO = 100) (participant 163)	Pol HIV transcripts (DMSO = 100) (participant 163)	PolyA HIV transcripts (DMSO = 100) (participant 163)	Tat-Rev HIV transcripts (DMSO = 100) (participant 163)	LLTR HIV transcripts (DMSO = 100) (participant 1379)	Pol HIV transcripts (DMSO = 100) (participant 1379)	PolyA HIV transcripts (DMSO = 100) (participant 1379)	TAR HIV transcripts (DMSO = 100) (participant 1379)	LLTR HIV transcripts (DMSO = 100) (participant 2027)	Pol HIV transcripts (DMSO = 100) (participant 2027)	PolyA HIV transcripts (DMSO = 100) (participant 2027)	TAR HIV transcripts (DMSO = 100) (participant 2027)	other results
pladienolide B	85.34	133.38	150.05	66.69	92.55	107.42	106.43	0	18.62	16.13	25.8	228.89	81.44	43.71	90.63	125.58	Multiply spliced HIV transcripts without activation, median relative to DMSO (24 hours, at least 3 PWH): 33%; HIV splicing (TatRev/PolyA) without activation (24 hours, not statistically significant): severely reduce; PolyA/LLTR ratio (DMSO = 1) (participant 156): 1.758; TatRev/PolyA ratio (DMSO = 1) (participant 156): 0.4444; PolyA/LLTR ratio (DMSO = 1) (participant 163): 1.15; TatRev/PolyA ratio (DMSO = 1) (participant 163): 0; LLTR/TAR ratio (DMSO = 1) (participant 1379): 0.08133; PolyA/LLTR ratio (DMSO = 1) (participant 1379): 1.3861; LLTR/TAR ratio (DMSO = 1) (participant 2027): 0.6485; PolyA/LLTR ratio (DMSO = 1) (participant 2027): 1.113
N#CC[C@H](C1CCCC1)n1cc(-c2ncnc3[nH]ccc23)cn1 [ruxolitinib]	91.78	118.18	108.3	167.91	148.94	91.9	183.43	0	49.44	31.32	9.4	170	57.36	74.54	109.96	90.7	HIV transcription levels in the absence of T cell activation (in words) (24 hours, at least 3 PWH): little effect
